Experiments:
[1] = molecular target: recombinant RORγ Ligand Binding Domain (LBD) protein (Homo sapiens (Human), UniProt P51449); experiment: Radio-Ligand RORγ Binding Assay (Assay 1); conditions: competition with 25-hydroxy [26,27-3H]-cholesterol, SPA
Method: Radio-Ligand RORγ Binding Assay (Assay 1)
Compounds described herein were tested for ability to bind to RORγ in a cell-free competition assay with commercially available radio-ligand (RL), 25-hydroxy [26,27-^3H]-cholesterol (PerkinElmer, Cat. # NET674250UC), for a ligand binding site on a recombinant RORγ Ligand Binding Domain (LBD) protein expressed as a 6×His-Glutathione-S-Transferase (GST) fusion. […] The plate was shaken at 700 rpm for 20 min and incubated for 10 min at rt, after which 40 μL of poly-Lys YSi SPA beads (PerkinElmer, Cat. # RPNQ0010) were added to achieve 50 μg of the beads per well. The plate was incubated on an orbital shaker for 20 min and then for 10 min without agitation at rt. SPA signal for tritium beta radiation was registered on PerkinElmer Microbeta plate reader. […] The percent inhibition vs. concentration data were fit into a four-parameter model, and IC50 values were calculated from the fit as the concentrations corresponding to the inflection points on the dose-response curves.

[2] = molecular target: full-length RORγt in Jurkat cells (Homo sapiens (Human), UniProt P51449); experiment: RORγt 5×RORE Assay in Jurkat Cells (Assay 2); format: cell-based; conditions: RORγt 5×RORE Nanoluc luciferase reporter
Sequence of full-length RORγt in Jurkat cells (P51449 other isoform, or with tags, fused parts or gaps): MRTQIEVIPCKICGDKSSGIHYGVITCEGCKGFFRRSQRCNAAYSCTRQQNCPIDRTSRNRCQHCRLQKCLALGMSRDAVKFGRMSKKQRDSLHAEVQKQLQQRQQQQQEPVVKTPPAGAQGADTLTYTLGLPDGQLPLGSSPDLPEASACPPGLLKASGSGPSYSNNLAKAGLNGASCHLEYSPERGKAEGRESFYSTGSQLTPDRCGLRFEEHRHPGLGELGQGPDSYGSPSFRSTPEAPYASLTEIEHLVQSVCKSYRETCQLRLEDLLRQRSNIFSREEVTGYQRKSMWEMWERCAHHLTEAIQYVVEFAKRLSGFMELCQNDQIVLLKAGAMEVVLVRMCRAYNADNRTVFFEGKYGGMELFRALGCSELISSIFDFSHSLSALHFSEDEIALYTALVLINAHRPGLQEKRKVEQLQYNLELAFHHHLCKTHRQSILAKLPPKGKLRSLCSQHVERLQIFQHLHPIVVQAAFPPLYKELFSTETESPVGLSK
Method: [formula] RORγt 5×RORE Assay in Jurkat Cells (Assay 2)
Compounds described herein were tested for RORγ inverse agonist activity in a cell-based, transcriptional activity assay. […] (Promega, Cat. # N1021) using KpnI and HindIII restriction sites. […] Tested compounds were added to the cells in the same media (final concentration of DMSO was 0.1% (v/v)), and the plates were incubated at 37° C./5% CO2 for 16-18 hrs. Luciferase activity in the conditioned supernatants was determined with NanoGlo® assay reagents (Promega, Cat. # N1130).

Sequence of recombinant RORγ Ligand Binding Domain (LBD) protein (P51449 269-508): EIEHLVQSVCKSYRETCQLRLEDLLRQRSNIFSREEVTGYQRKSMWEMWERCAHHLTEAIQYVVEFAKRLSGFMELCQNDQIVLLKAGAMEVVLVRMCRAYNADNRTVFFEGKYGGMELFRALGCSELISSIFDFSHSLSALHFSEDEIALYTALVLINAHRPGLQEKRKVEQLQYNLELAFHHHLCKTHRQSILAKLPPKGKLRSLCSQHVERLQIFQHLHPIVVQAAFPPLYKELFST

| Ki [1] [nM] | IC50 [2] [nM] | Structure (SMILES) |
| --- | --- | --- |
| < 100 | > 1000 | CCn1c(C[C@H]2CC[C@@H](C(F)(F)F)CC2)cc2cc(C(=O)NCc3ccc(S(=O)(=O)CC)cn3)ccc21 [IN-15.2, 1-ethyl-N-((5-(ethylsulfonyl)pyridin-2-yl)methyl)-2-(((1s,4s)-4-(trifluoromethyl)cyclohexyl)methyl)-1H-indole-5-carboxamide] |
| < 100 | > 1000 | CCn1c(C[C@H]2CC[C@@H](C(F)(F)F)CC2)cc2cc(C(=O)N[C@@H](CO)c3ccc(S(=O)(=O)CC)cc3)ccc21 [IN-16.2, 1-ethyl-N-((R)-1-(4-(ethylsulfonyl)phenyl)-2-hydroxyethyl)-2-(((1s,4S)-4-(trifluoromethyl)cyclohexyl)methyl)-1H-indole-5-carboxamide] |
| < 100 | < 100 | CCS(=O)(=O)c1ccc([C@H](COC(N)=O)NC(=O)c2ccc3c(c2)nc(C[C@H]2CC[C@H](C(F)(F)F)CC2)n3C2CC2)cc1 [BE-66, (R)-2-(1-cyclopropyl-2-(((1r,4R)-4-(trifluoromethyl)cyclohexyl)methyl)-1H-benzo[d]imidazole-5-carboxamido)-2-(4-(ethylsulfonyl)phenyl)ethyl carbamate] |
| < 100 | > 1000 | CCn1c(C[C@H]2CC[C@@H](C(F)(F)F)CC2)cc2cc(C(=O)NCc3ccc(S(=O)(=O)CC)cc3)ccc21 [IN-17.2, 1-ethyl-N-(4-(ethylsulfonyl)benzyl)-2-(((1s,4s)-4-(trifluoromethyl)cyclohexyl)methyl)-1H-indole-5-carboxamide] |
| < 100 | < 100 | CCS(=O)(=O)c1ccc([C@H](CO)NC(=O)c2ccc3c(c2)nc(C(=O)c2ccc(C(F)(F)F)cc2)n3C2CC2)cc1 [BE-61, (R)-1-cyclopropyl-N-(1-(4-(ethylsulfonyl)phenyl)-2-hydroxyethyl)-2-(4-(trifluoromethyl)benzoyl)-1H-benzo[d]imidazole-5-carboxamide] |
| < 100 | < 100 | CCS(=O)(=O)c1ccc([C@@H](COC(N)=O)NC(=O)c2ccc3c(c2)nc(C[C@H]2CC[C@H](C(F)(F)F)CC2)n3C2CC2)cc1 [BE-67, (S)-2-(1-cyclopropyl-2-(((1r,4S)-4-(trifluoromethyl)cyclohexyl)methyl)-1H-benzo[d]imidazole-5-carboxamido)-2-(4-(ethylsulfonyl)phenyl)ethyl carbamate] |

Source: patent publication US10829448B2, “Substituted benzoimidazoles as modulators of ROR-γ” (Vitae Pharmaceuticals, LLC, priority 2015, dated 2020)
